# Assay results reported in ChEMBL document CHEMBL1143952, “Synthesis and characterization of carnitine nitro-derivatives” (Bioorg Med Chem, 2008).
# Legend:
# [1] = biological target: T1, Organic cation/carnitine transporter 2 (Rattus norvegicus, UniProt O70594); assay: Inhibition of rat kidney brush border membrane OCTN2 transporter assessed as [3H]carnitine uptake after 10 mins
# T1 sequence (O70594 whole entry): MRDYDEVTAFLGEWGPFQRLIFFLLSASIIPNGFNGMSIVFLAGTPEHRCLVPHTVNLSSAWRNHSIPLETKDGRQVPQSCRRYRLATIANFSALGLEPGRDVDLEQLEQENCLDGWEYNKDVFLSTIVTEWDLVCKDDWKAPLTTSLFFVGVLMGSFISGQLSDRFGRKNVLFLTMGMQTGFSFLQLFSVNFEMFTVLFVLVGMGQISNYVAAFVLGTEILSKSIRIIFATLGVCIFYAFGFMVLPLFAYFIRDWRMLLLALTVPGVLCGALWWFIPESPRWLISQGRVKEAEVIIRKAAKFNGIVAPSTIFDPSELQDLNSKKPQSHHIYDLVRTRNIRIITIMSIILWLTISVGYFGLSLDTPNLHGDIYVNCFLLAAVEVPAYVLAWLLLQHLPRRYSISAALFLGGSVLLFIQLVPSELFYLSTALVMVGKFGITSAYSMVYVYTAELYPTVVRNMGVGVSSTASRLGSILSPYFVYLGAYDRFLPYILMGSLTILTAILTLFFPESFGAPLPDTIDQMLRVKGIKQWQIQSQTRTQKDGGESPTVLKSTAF
# [2] = Metabolic stability in human RBC assessed as nitrite or nitrate production after 24 hrs; assay type: ADME, cell-based; conditions: erythrocyte
# [3] = Metabolic stability in human RBC assessed as biotransformation after 24 hrs relative to unaltered compound; assay type: ADME, cell-based, Erythrocyte; conditions: red blood cells (RBC), read-out: Activity
# [4] = Metabolic stability in phosphate buffer saline assessed as biotransformation after 24 hrs relative to unaltered compound; assay type: ADME; conditions: phosphate buffered saline; read-out: Activity
# [5] = Metabolic stability in human saliva assessed as biotransformation after 24 hrs relative to unaltered compound; assay type: ADME; conditions: read-out: Activity
# [6] = biological target: T2, OCTN2 (organic cation/carnitine transporter 2) (Rattus norvegicus, UniProt O70594); assay: Inhibition of rat kidney brush border membrane OCTN2 transporter assessed as [3H]carnitine uptake after 30 mins relative to control; design: scale not given: the % may be the effect or the level left; conditions: probe [3H]carnitine, read-out: Activity
# T2 sequence (O70594 whole entry): T1 sequence (O70594 whole entry)
# [7] = Metabolic stability in human plasma assessed as biotransformation after 24 hrs relative to unaltered compound
IC50 [1] [µM],Activity [2] [nmol/mL],metabolised at 24 h [3] [%],degraded at 24 h [4] [%],metabolised at 24 h [5] [%],activity at 0.5 h [6] [%],metabolised at 24 h [7] [%],Structure (SMILES)
443,40,73,100,75,3.1,100,CCOC(=O)C[C@@H](C[N+](C)(C)C)OC(=O)CCCCCCCCCCCCCCCO[N+](=O)[O-].[Cl-]
53,62,56,100,100,16.3,100,C[N+](C)(C)C[C@H](CC(=O)O)OC(=O)CCCCCCCCCCCCCCCO[N+](=O)[O-].[Cl-]
76,23,100,100,100,20,45,C[N+](C)(C)C[C@H](CC(=O)O)OC(=O)CCCCCO[N+](=O)[O-].[Cl-]
,22,100,100,100,1.5,100,CCOC(=O)C[C@@H](C[N+](C)(C)C)OC(=O)CCCCCO[N+](=O)[O-].[Cl-]
